The test system of series [1] is aconitic arrhythmia. Particulars: for effect on baseline heart rate and contraction (intervals R-R, PQ, QT): i.v. at doses that provide antiarrhythmic effect in 50% of rats; for antiarrhythmic activity and range of antiarrhythmic action, comparison: active doses 5-10 minutes prior to i.v. aconitine. Here is the method: The study was conducted in anesthetized white outbred rats. The objective of the experiment was to study the efficiency of intravenous administration of the studied substances and known antiarrhythmic agents in the model of aconitic arrhythmia in anesthetized rats.
The studied substances and medicinal products for comparison were administered in active doses 5-10 minutes prior to intravenous administration of aconitine.

Series [2] relates to cardiac arrhythmia caused by barium chloride. Kind of series: Cardiac arrhythmia caused by barium chloride. The series is classed as in vivo, rats. Here is the method: The study was conducted in 60 white outbred rats. […] Out of 15 control animals, which received barium chloride at a dose of 20 mg/kg, […] of the rats died.
Rhythm disturbances were mostly of a ventricular type, in the form of ventricular bigeminy, trigeminy, group extrasystoles, transient ventricular standstill, flutter and ventricular fibrillation. In addition, various types of conduction disorders and increased ST segment above contours were observed.
Intravenous administration of the studied substances at doses of 0.05-0.1 mg/kg 10 min prior to the injection of barium chloride prevented the development of arrhythmias in 60-90% of rats. Antiarrhythmic effect of the studied substances combines with antitoxic effect against lethality from barium chloride.

The test system of series [3] is corneal reflex. Kind of series: Terminal (topical) anesthesia of the rabbit eye, method of Rainier-Valet. It counts as in vivo, rabbits. Here is the method: The local anesthetic effect of the studied substances was investigated in 10 rabbits. The effect on terminal anesthesia was investigated by the method of Rainier-Valet, by identifying the corneal reflex to mechanical irritation every 5-10 min after instillation of 2 drops of 0.1%-0.25%-0.5% solutions of the studied substances.
(§1) The time of anesthesia onset, its depth and duration were determined. Activity of the studied substances at topical anesthesia was compared to dicaine; at infiltration anesthesia-to novocaine.

Series [4] concerns threshold of pain irritation. The series is described as follows: Infiltration anesthesia in rabbits, method of Bullbring-Vida. It counts as in vivo. The conditions noted are these: 0.5% solution. Here is the method:
The ability of the medicinal product to cause infiltration anesthesia was studied in rabbits by the method of Bullbring-Vida (pain method).
as §1

For `CCOC(=O)Nc1ccc2c(c1)N(C(=O)CCN1CCOCC1)c1ccccc1S2` [Etmozin], the “effect on baseline heart rate and contraction (intervals R-R, PQ, QT)” value in series [1] is “inhibition of the baseline heart rate and contraction”. In addition, in series [1] (i.v.), the “antiarrhythmic activity and range of antiarrhythmic action, comparison” value is on record as “most efficient among the reference antiarrhythmic agents”.

As for `CCN(CC)CC(=O)Nc1c(C)cccc1C` [Lidocaine], in series [1] (i.v., active doses prior to aconitine), the “duration of effect, comparison” value is reported as “shortest effect”.

In the case of `CCN(CC)CCNC(=O)c1ccc(N)cc1` [Procainamide], the “antiarrhythmic and antitoxic activity, comparison” value in series [2] (barium chloride model of ventricular type arrhythmia) is “weakest antiarrhythmic and antitoxic activity”.

With `C=C[C@H]1C[N@@]2CC[C@H]1C[C@@H]2[C@@H](O)c1ccnc2ccc(OC)cc12` [Quinidine], the “effect on baseline heart rate and contraction (intervals R-R, PQ, QT)” value in series [1] was “inhibition of the baseline heart rate and contraction”. Also, the “antiarrhythmic and antitoxic effect compared with substances 1-9 at 0.05 mg/kg and 0.1 mg/kg” value in series [2] (5 mg/kg and 10 mg/kg) is listed as “approximately similar”.

For the compound `COc1ccc(CCN(C)CCCC(C#N)(c2ccc(OC)c(OC)c2)C(C)C)cc1OC` (centres unmarked) [Verapamil], in series [1] (i.v.), the “antiarrhythmic activity and range of antiarrhythmic action, comparison” value is “least effective”.

As for `CCCCNc1ccc(C(=O)OCCN(C)C)cc1` [dicaine], the “average duration of terminal anesthesia of the rabbit eye” value is listed as 37 min in series [3] (0.1%) and 52 min in series [3] (0.5%). The “onset of terminal anesthesia of the rabbit eye” value in series [3] (concentrations of 0.1% and 0.5%) fell in the range of 1 to 2 min.

As to `CCN(CC)CCOC(=O)c1ccc(N)cc1` [novocaine], the “duration of local anesthetic effect” value in series [4] was “about 90 min”.

Source of the values: US20210015881A1 (priority 2016, published 2021).
